Nine compounds from PubChem BioAssay (NCI) can be followed below.

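Compound exposure: 48 hours, 5 concentrations, 96-well plates. GI50 marks 50% less growth. TGI is the concentration that stops growth completely.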

Holding throughout (assay): NCI-60 cell line screen, 48 h
Experiment [1] deals with BT-549 breast.
The subject of experiment [2] is NCI-H226 lung.
Experiment [3] concerns OVCAR-4 ovarian.
Experiment [4] relates to OVCAR-5 ovarian.
Experiment [5] concerns SK-MEL-5 melanoma.
Experiment [6] concerns SN12C renal.
In experiment [7] the test system is SW-620 colon.
Experiment [8] relates to UACC-62 melanoma.

For the compound `Cc1nn2c(/C=C3\C(=O)Nc4ccc(Cl)cc43)c(C)nc2s1`, the GI50 is 63.2 µM in experiment [1]; over 100 µM in experiment [2]; 83 µM in experiment [3]; over 100 µM in experiment [4]; 10.1 µM in experiment [5]; over 100 µM in experiment [6]. Moreover, the figures for the GI50 in experiment [7] and in experiment [8] were 23.4 µM and 82.1 µM, respectively. In addition, the TGI in experiment [1], in experiment [2], in experiment [3], in experiment [4], in experiment [5] and in experiment [6] was over 100 µM in each case. Besides, the TGI in experiment [7] and in experiment [8] was over 100 µM in each case.
On to `COc1cc([N+](=O)[O-])c(OC)cc1-c1nc2sc(Cl)cn2c1/C(N)=N/C(=N)N`, for which the GI50 is 11.4 µM in experiment [1]; 20.9 µM in experiment [2]; 5.67 µM in experiment [3]; 19.7 µM in experiment [4]; 4.52 µM in experiment [5]; 1.91 µM in experiment [6]. Also, the GI50 in experiment [7] was 2.15 µM; in experiment [8], 15 µM. In addition, the TGI in experiment [1] came out at 47.5 µM; in experiment [2], 53.9 µM; in experiment [3], 33.8 µM; in experiment [4], 45.4 µM; in experiment [5] it was 29.5 µM; in experiment [6], 4.29 µM. For the same compound, the TGI in experiment [7] was found to be 4.63 µM; in experiment [8] it was 35.3 µM.
For `C=C1C(=O)O[C@H]2[C@H]1CC/C(COC(=O)NCc1ccc(Cn3c(=O)sn(CCCl)c3=O)cc1)=C\CC[C@@]1(C)O[C@@H]21`, the GI50 in experiment [1] was 1.45 µM; in experiment [2] it was 17.2 µM; in experiment [3], 1.92 µM; in experiment [4], 1.97 µM; in experiment [5], 1.7 µM; in experiment [6] it was 2.01 µM. Besides, the GI50 in experiment [7] was 1.17 µM; in experiment [8], 1.86 µM. Moreover, the TGI in experiment [1] stood at 2.78 µM; in experiment [2], 37.3 µM; in experiment [3], 4.01 µM; in experiment [4] it was 4.19 µM; in experiment [5], 3.24 µM; in experiment [6], 4.28 µM. The TGI in experiment [7] was 2.69 µM; in experiment [8], 3.95 µM.
Regarding `O=C1c2ccccc2C(O)(O)C1(O)C1(O)C(=O)c2ccccc2C1(O)O` (stereo not given), the TGI in experiment [1] was over 100 µM; in experiment [2], over 100 µM; in experiment [3] it was over 100 µM; in experiment [4] it was over 100 µM; in experiment [5] it was 39.4 µM; in experiment [6], 30.6 µM. Further, the TGI in experiment [7] and in experiment [8] was over 100 µM in each case.
Turning to `C=C(C)C(=O)O[C@H]1CC(=C)[C@@H]2C[C@H](O)[C@](O)(CCl)[C@@H]2[C@H]2OC(=O)C(=C)[C@@H]21`, the GI50 is 1.84 µM in experiment [1]; 19.6 µM in experiment [2]; 2.08 µM in experiment [3]; 14.8 µM in experiment [4]; 8.66 µM in experiment [5]; 4.09 µM in experiment [6]. Moreover, the GI50 is 2.08 µM in experiment [7] and 3.26 µM in experiment [8]. Further, the TGI in experiment [1] is 3.45 µM; in experiment [2] it was 46.2 µM; in experiment [3], 4.01 µM; in experiment [4], 29.6 µM; in experiment [5], 23.4 µM; in experiment [6], 17.1 µM. Also, the TGI worked out at 4.57 µM in experiment [7] and 11.4 µM in experiment [8].
As for `CC(C)(C)n1cc(-c2ccnc(NCCCNS(=O)(=O)c3ccc(C(F)(F)F)cc3)c2)c(-c2cccc(O)c2)n1`, the GI50 was 1.61 µM in experiment [1]; 2.35 µM in experiment [2]; 2.29 µM in experiment [3]; 1.81 µM in experiment [4]; 1.6 µM in experiment [5]; 1.61 µM in experiment [6]. The figures for the GI50 in experiment [7] and in experiment [8] were 1.89 µM and 1.69 µM, respectively. Besides, the TGI in experiment [1] came out at 3.05 µM; in experiment [2] it was 5.71 µM; in experiment [3], 5.25 µM; in experiment [4] it was 3.4 µM; in experiment [5], 2.97 µM; in experiment [6] it was 3.03 µM. In addition, the figures for the TGI in experiment [7] and in experiment [8] were 3.71 µM and 3.23 µM, respectively.
Regarding `COc1ccc2nc3cccc([N+](=O)[O-])c3c(NCCCCCC(=O)O)c2c1`, the GI50 in experiment [1] is 0.131 µM; in experiment [2], 0.306 µM; in experiment [3], 0.393 µM; in experiment [4], 0.132 µM; in experiment [5], 0.0116 µM; in experiment [6] it was 0.131 µM. In experiment [8], the GI50 was 0.183 µM. The TGI in experiment [1] is 0.422 µM; in experiment [2] it was 1.33 µM; in experiment [3], 1.72 µM; in experiment [4], 1.11 µM; in experiment [5], 0.0694 µM; in experiment [6] it was 1.16 µM. Moreover, the results for the TGI in experiment [7] and in experiment [8] were 0.268 µM and 0.465 µM, respectively.
Turning to `CN(O)c1nc(N(C)O)nc(N2CCOCC2)n1`, the GI50 was 5.34 µM in experiment [1]; 7.64 µM in experiment [2]; 2.02 µM in experiment [3]; 41.2 µM in experiment [4]; 4.09 µM in experiment [5]; 7.48 µM in experiment [6]. Moreover, the results for the GI50 in experiment [7] and in experiment [8] were 11.2 µM and 4.12 µM, respectively. In addition, the TGI in experiment [1], in experiment [2], in experiment [3], in experiment [4], in experiment [5] and in experiment [6] was over 100 µM in each case. For the same compound, the TGI in experiment [7] and in experiment [8] was over 100 µM throughout.
For the compound `COc1cc(NC(C)CCCNC2CN3CCC2CC3)c2ncccc2c1` (stereo not given), the GI50 is 14.8 µM in experiment [1]; 13.6 µM in experiment [2]; 1.84 µM in experiment [3]; 14.5 µM in experiment [4]; 2.23 µM in experiment [5]; 14.1 µM in experiment [6]. Further, the GI50 is 11.9 µM in experiment [7] and 3.2 µM in experiment [8]. In addition, the TGI in experiment [1] amounted to 29.3 µM; in experiment [2], 27.7 µM; in experiment [3] it was 6.51 µM; in experiment [4], 28.3 µM; in experiment [5], 5.6 µM; in experiment [6], 29.4 µM. Also, the TGI in experiment [7] was found to be 27.6 µM; in experiment [8], 10.5 µM.
